A word on the IC50: it is the concentration needed to halve the response being measured.

Data on 24 compounds can be found in US9133122B2, “Amide compounds, compositions and uses thereof” (EVOTEC AG, priority 2008, dated 2015).

One test deals with T1, hP2X2/3H (Homo sapiens, UniProt P56373+Q9UBL9).
T1 construct: expressed in transfected cells
T1 sequence (P56373 1-397): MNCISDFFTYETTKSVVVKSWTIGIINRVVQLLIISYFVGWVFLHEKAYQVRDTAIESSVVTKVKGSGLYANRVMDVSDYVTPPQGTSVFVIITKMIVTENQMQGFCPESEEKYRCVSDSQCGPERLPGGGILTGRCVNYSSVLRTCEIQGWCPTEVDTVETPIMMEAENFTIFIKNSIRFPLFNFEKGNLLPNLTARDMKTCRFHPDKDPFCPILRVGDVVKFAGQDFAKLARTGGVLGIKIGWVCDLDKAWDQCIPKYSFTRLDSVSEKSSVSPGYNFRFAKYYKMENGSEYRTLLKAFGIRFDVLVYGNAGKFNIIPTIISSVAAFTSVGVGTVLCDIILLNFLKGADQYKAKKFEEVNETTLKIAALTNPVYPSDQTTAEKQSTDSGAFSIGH
T1 sequence (Q9UBL9 1-471): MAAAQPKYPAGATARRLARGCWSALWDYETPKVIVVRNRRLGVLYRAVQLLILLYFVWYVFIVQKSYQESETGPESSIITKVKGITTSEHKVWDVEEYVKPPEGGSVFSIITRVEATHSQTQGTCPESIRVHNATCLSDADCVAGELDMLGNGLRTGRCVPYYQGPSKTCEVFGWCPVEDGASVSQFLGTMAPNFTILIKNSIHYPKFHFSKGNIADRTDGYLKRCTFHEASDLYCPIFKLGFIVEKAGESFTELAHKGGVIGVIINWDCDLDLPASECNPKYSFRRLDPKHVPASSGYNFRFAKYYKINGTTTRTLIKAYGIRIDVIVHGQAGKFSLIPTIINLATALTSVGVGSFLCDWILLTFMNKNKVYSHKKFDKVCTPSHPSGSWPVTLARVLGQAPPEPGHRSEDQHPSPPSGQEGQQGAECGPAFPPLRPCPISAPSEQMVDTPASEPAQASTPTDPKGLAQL
Put plainly: Calcium uptake assay (Ca influx), P2X antagonist assay, P2X2/3 heteromer. As to conditions: inhibition of agonist-induced calcium influx. The format is cell-based. Summed up:
(§1)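 Receptors expressed in HEK293 or 1321N1 cells, transiently or stably; heteromer from P2X3 transfected into P2X2-stable line. Fluo-4-type dye in HBSS; compound pre-treatment 1–30 min, then agonist (αβMeATP, ATP or analog) at EC50-90. FLIPR peak minus baseline fluorescence; IC50 by 4-parameter fit, 1 pM–10 μM.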

In another test the target is T2, hP2X3 (Homo sapiens, UniProt P56373).
T2 construct: expressed in transfected cells
T2 sequence (P56373 1-397): T1 sequence (P56373 1-397)
Kind of test: Calcium uptake assay (Ca influx), P2X antagonist assay, P2X3 homomer. As to conditions: inhibition of agonist-induced calcium influx. The format is cell-based. Summed up:
as §1

`Cc1ccc(-c2cc(C(=O)NCc3cnc(C)nc3)cc(-c3ncccn3)c2)cc1` [Compound 2, 4′-Methyl-5-pyrimidin-2-yl-biphenyl-3-carboxylic acid (2-methyl-pyrimidin-5-ylmethyl)-amide]: the figures for the IC50 at hP2X2/3H and on hP2X3 were 0.407 µM and 0.0785 µM, respectively.
In the same order, the values of `Cc1ccc(-c2cc(C(=O)NCc3ccc(C)nc3)cc(-c3ccccc3OC(F)(F)F)c2)nc1` [Compound 14, 5-(5-Methyl-pyridin-2-yl)-2′-trifluoromethoxy-biphenyl-3-carboxylic acid (6-methyl-pyridin-3-ylmethyl)-amide] are 0.172 µM and 0.318 µM.
Taken in the same sequence, the figures for `Cc1ccc(-c2cc(C(=O)NCc3ccc(C)nc3)cc(-c3ccccc3CN(C)C)c2)nc1` [Compound 28, 2′-Dimethylaminomethyl-5-(5-methyl-pyridin-2-yl)-biphenyl-3-carboxylic acid (6-methyl-pyridin-3-ylmethyl)-amide] were 0.0835 µM and 0.066 µM.
In the same order, the values of `Cc1ccc(-c2cc(C(=O)N[C@H](C)c3ccc(C)nc3)cc(N3CCCCC3=O)c2)cc1` [Compound 40, (R)-4′-Methyl-N-(1-(6-methylpyridin-3-yl)ethyl)-5-(2-oxopiperidin-1-yl)biphenyl-3-carboxamide] are 0.0527 µM and 0.0263 µM.
For the compound `Cc1ccc(-c2cc(C(=O)NCc3ccc(C)nc3)cc(-c3ccccc3)c2)nc1` [Compound 21, 5-(5-Methyl-pyridin-2-yl)-biphenyl-3-carboxylic acid (6-methyl-pyridin-3-ylmethyl)-amide], the IC50 on hP2X2/3H came to 0.914 µM; on hP2X3, 0.192 µM.
In the same order, the values of `Cc1ccc(-c2cc(C(=O)NCc3ccc(C)nc3)cc(-c3ccccc3C#N)c2)cc1` [Compound 27, 2″-Cyano-4-methyl-[1,1′;3′,1″]terphenyl-5′-carboxylic acid (6-methyl-pyridin-3-ylmethyl)-amide] are 0.142 µM and 0.195 µM.
As for `Cc1ccc(-c2cc(C(=O)NCc3cnc(C)nc3)cc(-c3ccc(C)cn3)c2)cc1` [Compound 1, 4′-Methyl-5-(5-methyl-pyridin-2-yl)-biphenyl-3-carboxylic acid (2-methyl-pyrimidin-5-ylmethyl)-amide], the results for the IC50 at hP2X2/3H and at hP2X3 were 0.0876 µM and 0.0588 µM, respectively.
Taken in the same sequence, the figures for `Cc1ccc(-c2cc(C(=O)NCc3ccc(C)nc3)cc(-c3ccccn3)c2)nc1` [Compound 32, 3-(5-Methyl-pyridin-2-yl)-N-(6-methyl-pyridin-3-ylmethyl)-5-pyridin-2-yl-benzamide] were 0.997 µM and 0.058 µM.
Taken in the same sequence, the figures for `Cc1ccc(-c2cc(C(=O)N[C@H](C)c3cnc(C)nc3)cc(-c3ccccc3C(N)=O)c2)nc1` [Compound 47, 5′-(5-Methyl-pyridin-2-yl)-biphenyl-2,3′-dicarboxylic acid 2-amide 3′-{[(R)-1-(2-methyl-pyrimidin-5-yl)-ethyl]-amide}] were 0.0368 µM and 0.0291 µM.
In the same order, the values of `Cc1ccc(-c2cc(C(=O)N[C@H](C)c3cnc(C)nc3)cc(N3CCCC3=O)c2)cc1` [Compound 48, 4′-Methyl-5-(2-oxo-pyrrolidin-1-yl)-biphenyl-3-carboxylic acid [(R)-1-(2-methyl-pyrimidin-5-yl)-ethyl]-amide] are 0.0332 µM and 0.0165 µM.
For `Cc1ccc(-c2cc(C(=O)N[C@@H](C)CO)cc(-c3cccc(F)c3F)c2)c(C#N)c1` [Compound 85, 2-Cyano-2″,3″-difluoro-4-methyl-[1,1′;3′,1″]terphenyl-5′-carboxylic acid ((S)-2-hydroxy-1-methyl-ethyl)-amide], the results for the IC50 at hP2X2/3H and at hP2X3 were 1.36 µM and 0.0319 µM, respectively.
Take `COc1cccc(-c2cc(C(=O)NCc3ccc(C)nc3)cc(-c3ccc(C)cc3)c2)c1` [Compound 11, 3″-Methoxy-4-methyl-[1,1′;3′,1″]terphenyl-5′-carboxylic acid (6-methyl-pyridin-3-ylmethyl)-amide]: the IC50 came out at 1.06 µM on hP2X2/3H and 0.485 µM at hP2X3.
In the same order, the values of `Cc1ccc(-c2cc(C(=O)NCc3ccc(C)nc3)cc(-c3cnc(N)cn3)c2)nc1` [Compound 41, 3-(5-Amino-pyrazin-2-yl)-5-(5-methyl-pyridin-2-yl)-N-(6-methyl-pyridin-3-ylmethyl)-benzamide] are 0.169 µM and 0.0238 µM.
Taken in the same sequence, the figures for `Cc1ccc(-c2cc(C(=O)NCc3ccc(C)nc3)cc(-c3ccccc3CO)c2)cc1` [Compound 8, 2″-Hydroxymethyl-4-methyl-[1,1′;3′,1″]terphenyl-5′-carboxylic acid (6-methyl-pyridin-3-ylmethyl)-amide] were 0.116 µM and 0.182 µM.
In the same order, the values of `Cc1ccc(-c2cc(C(=O)NCc3cnc(C)nc3)cc(N3CCNCC3=O)c2)c(C#N)c1` [Compound 66, 2′-Cyano-4′-methyl-5-(2-oxo-piperazin-1-yl)-biphenyl-3-carboxylic acid (2-methyl-pyrimidin-5-ylmethyl)-amide] are 0.729 µM and 0.0858 µM.
Consider `Cc1ccc(-c2cc(C(=O)NCc3cnc(C)nc3)cc(-c3ccc(C)cn3)c2)nc1` [Compound 29, 3,5-Bis-(5-methyl-pyridin-2-yl)-N-(2-methyl-pyrimidin-5-ylmethyl)-benzamide], for which the IC50 at hP2X2/3H was 0.219 µM; at hP2X3, 0.0258 µM.
Taken in the same sequence, the figures for `COCc1ccccc1-c1cc(C(=O)N[C@H](C)c2cnc(C)nc2)cc(-c2ccccn2)c1` [Compound 53, 2′-Methoxymethyl-5-pyridin-2-yl-biphenyl-3-carboxylic acid [(R)-1-(2-methyl-pyrimidin-5-yl)-ethyl]-amide] were 0.295 µM and 0.0626 µM.
In the same order, the values of `Cc1ccc(-c2cc(C(=O)N[C@H](C)c3cnc(C)nc3)cc(N3CCCC3=O)c2)nc1` [Compound 58, (R)-3-(5-Methylpyridin-2-yl)-N-(1-(2-methylpyrimidin-5-yl)ethyl)-5-(2-oxopyrrolidin-1-yl)benzamide] are 0.194 µM and 0.0353 µM.
For `COCc1ccccc1-c1cc(C(=O)N[C@H](C)c2cnc(C)nc2)cc(-c2ccc(C)cn2)c1` [Compound 45, 2′-Methoxymethyl-5-(5-methyl-pyridin-2-yl)-biphenyl-3-carboxylic acid [(R)-1-(2-methyl-pyrimidin-5-yl)-ethyl]-amide], the IC50 at hP2X2/3H worked out at 0.0134 µM; on hP2X3, 0.0146 µM.
As to `Cc1ccc(-c2cc(C(=O)NCc3ccc(C)nc3)cc(-c3cccnc3)c2)nc1` [Compound 20, 3-(5-Methyl-pyridin-2-yl)-N-(6-methyl-pyridin-3-ylmethyl)-5-pyridin-3-yl-benzamide], the IC50 on hP2X2/3H was 0.0705 µM; on hP2X3 it was 0.0385 µM.
On to `Cc1ccc(-c2cc(C(=O)NCc3ccc(C)nc3)cc(-c3ccc(CO)cc3)c2)cc1` [Compound 26, 4″-Hydroxymethyl-4-methyl-[1,1′;3′,1″]terphenyl-5′-carboxylic acid (6-methyl-pyridin-3-ylmethyl)-amide], for which the IC50 on hP2X2/3H amounted to 0.503 µM; at hP2X3, 0.309 µM.
In the same order, the values of `COCC(CO)NC(=O)c1cc(-c2ccc(C)cn2)cc(-c2cccc(F)c2F)c1` (stereo not drawn) [Compound 78, 2′,3′-Difluoro-5-(5-methyl-pyridin-2-yl)-biphenyl-3-carboxylic acid (2-hydroxy-1-methoxymethyl-ethyl)-amide] are 7.17 µM and 0.221 µM.
Taken in the same sequence, the figures for `Cc1ccc(-c2cc(C(=O)N[C@@H](C)CO)cc(-c3ncccc3C(F)(F)F)c2)nc1` [Compound 81, N-((S)-2-Hydroxy-1-methyl-ethyl)-3-(5-methyl-pyridin-2-yl)-5-(3-trifluoromethyl-pyridin-2-yl)-benzamide] were 1.22 µM and 0.0487 µM.
Taken in the same sequence, the figures for `Cc1ccc(-c2cc(C(=O)NCc3ccc(C)nc3)cc(-c3cccnc3C#N)c2)nc1` [Compound 42, 3-(2-Cyano-pyridin-3-yl)-5-(5-methyl-pyridin-2-yl)-N-(6-methyl-pyridin-3-ylmethyl)-benzamide] were 0.0505 µM and 0.0151 µM.
